These results are taken from BindingDB's records for doi:10.1021/jm00044a016 (University of Paris, 1994).

The experiment has as its target Glutamyl aminopeptidase (Oryctolagus cuniculus). The experiment in a line: Inhibition of aminopeptidase A (APA).
`NC(CS)CCC(C(=O)O)C(=O)O` (stereo not given) [2-(3-Amino-4-mercapto-butyl)-malonic acid] displayed a Ki of 280 nM.

As to `N[C@H](CS)CCCS(=O)(=O)O` [Sodium; (S)-4-amino-5-mercapto-pentane-1-sulfonate], the affinity corresponds to a Ki of 370 nM. For `NC(CS)CCCP(=O)(O)O` (stereo not given) [(4-Amino-5-mercapto-pentyl)-phosphonic acid], affinity was put at a Ki of 510 nM. This Ki and that of the compound before are within 1.5-fold of each other. Regarding `NC(CS)CCCCC(=O)O` (stereo not given) [6-Amino-7-mercapto-heptanoic acid], the Ki is 1600 nM. In turn, `NC(CS)CC(C(=O)O)C(=O)O` (stereo not given) [2-(2-Amino-3-mercapto-propyl)-malonic acid] gave a Ki of 3500 nM.

A word on the Ki: it is the dissociation constant of the complex between target and ligand, obtained from inhibition or displacement.
